Values joined by “and” are separate entries in the source; they are usually repeats but may differ in a detail not shown here. Equal values may be shown once. “Also recorded” adds a separate entry of the source. Read-outs that look alike come from different tables or passages of the source. Each block holds one molecule with its values, some of them ahead of it.
What was measured:
Stability to light = type: physicochemical
[1] = Clinical observation, body weight and food consumption of treated monkeys; type: in vivo, cynomolgus monkeys
Text: AGN 194310 is an RAR antagonist or inverse agonist. Its structure is described herein below.

serum triglycerides [2] = assay: Serum triglycerides (STG) in male SJL mice; type: in vivo; details: for Serum triglycerides, Day 4 0 hr (2 pm), group mean / Serum triglycerides, Day 3 8 a.m., group mean / Serum triglycerides, Day 4 0 hr (2 pm): 20 mg/kg oral gavage daily; for Serum triglycerides, Day 3 8 a.m., group mean / Serum triglycerides, Day 3 8 a.m.: non-fasting; for Serum triglycerides, Day 3 8 a.m. / Serum triglycerides, Day 4 0 hr (2 pm): individual male SJL mice, 20 mg/kg; for Serum triglycerides, Day 3 8 a.m.: 20 mg/kg oral gavage daily in corn oil; for Effect on non-fasting STG: Day 3, 8 a.m.
Description: Male SJL mice were dosed orally with vehicle, AGN 197116 (RARα antagonist) or AGN 194310 (RAR pan-antagonist) for 4 consecutive days. The structure of AGN 194310 is described herein below. The structure of AGN 197116 is: [drawing 16]
The test compounds were dissolved in corn oil and given at a dosage/volume of 20 mg/5 ml/kg. […]
(§1) On day 4, animals were fasted after dosing, starting at 8 a.m. Following 6 hours of fasting, blood samples were collected prior to intravenous injection of WR-1339 at 100 mg/5 ml/kg. Additional serum samples were collected at 1 and 2 hours after WR-1339 injection. WR-1339 is a detergent which inactivates lipoprotein lipase and thus prevents the removal of triglycerides from circulation. By measuring the increase of STG after WR-1339 administration in fasted animals, one can estimate the hepatic triglyceride (HTG) output during fasting.
(§2) Due to the lack of effect of AGN 197116 at 20 mg/kg, the dose was increased to 100 mg/kg in the same set of mice. STG was determined on day 3 prior to dosing (Day 3, 8 a.m.). […] To ensure that AGN 197116 would be bioavailable, AGN 197116 was dissolved in DMSO and given by intraperitoneal injections, once at 4 p.m. on day 3 and once at 8 a.m. on day 4, at a dosage of 100 mg/kg/injection. Administration of WR-1339 and blood collections on day 4 were similarly conducted as described above.

[3] = cynomolgus monkey, in vivo
Description: (§3) Five male cynomologus monkeys were employed in Study PT-99-10. Three of the five monkeys were treated with AGN 194310 at a daily dosage of 1.25 mg/kg (orally) for a period of 25 days. […] Its structure is described herein below. The remaining two were similarly treated with a vehicle to serve as control. Serum samples were collected on days 1, 8, 15, 22 and 25 for triglyceride determination. Serum samples from days 8, 15, 22 and 25 were also assayed for the concentration of AGN 194310.

serum triglycerides [4] = assay: Serum triglycerides in cynomolgus monkeys treated orally (Study PT-99-10); type: in vivo
Description: as §3, with “PT-99-10.” for “PT-99-10. Three of the five monkeys were treated with AGN 194310 at a daily dosage of 1.25 mg/kg (orally) for a period of 25 days.”

[5] = tested on: hepatic triglyceride output; assay: Hepatic triglyceride (HTG) output: increase of STG after WR-1339 in fasted male SJL mice; type: in vivo; details: for Serum triglycerides, Day 4 post-WR-1339 1 hr (3 p.m.), group mean / Serum triglycerides, Day 4 post-WR-1339 2 hr (4 p.m.), group mean / Serum triglycerides, Day 4 post-WR-1339 1 hr (3 p.m.) / Serum triglycerides, Day 4 post-WR-1339 2 hr (4 p.m.): fasted; for Effect on HTG output after WR-1339 injection: 20 mg/kg orally for 4 days
Description: as §1, §2

[6] = tested on: serum lipids (triglyceride, cholesterol, LDL, HDL); details: for Triglyceride level after treatment: with diet and exercise
[7] = group mean, male SJL mice, after 6 hours fasting, before WR-1339
[8] = after 6 hours fasting, before WR-1339
[9] = male SJL mice, 20 mg/kg oral gavage daily, 1 hr after 100 mg/kg tyloxapol IV
[10] = male SJL mice, 20 mg/kg oral gavage daily, 2 hr after 100 mg/kg tyloxapol IV
[11] = individual male SJL mice, 20 mg/kg oral gavage daily, 1 hr after 100 mg/kg tyloxapol IV
[12] = individual male SJL mice, 20 mg/kg oral gavage daily, 2 hr after 100 mg/kg tyloxapol IV

Stability to normal light (Stability to light): relatively stable to normal light
Oral absorption [3]: well absorbed
SMILES: CCc1ccc(C2=CC(C)(C)Sc3ccc(C#Cc4ccc(C(=O)O)cc4)cc32)cc1 [AGN 194310, 4-[[4-(4-ethylphenyl)-2,2-dimethyl-(2H)-thiochromen-6-yl]-ethynyl]-benzoic acid]
Body weight and rate of food consumption ([1]; 1.25 mg/kg orally daily, throughout the 25 day study): no change in body weight or rate of food consumption
Abnormal clinical signs ([1]; daily dose 1.25 mg/kg orally, 25 days): without any noticeable abnormal clinical signs
Serum triglycerides, Day 4 0 hr (2 pm), group mean (serum triglycerides [2]; [7]): 71.5
Serum triglycerides, Day 3 8 a.m., group mean (serum triglycerides [2]; group mean, male SJL mice): 92.7
Serum triglycerides, Day 3 8 a.m. (serum triglycerides [2]): 71.2 and 105.7 and 67.9 and 113.2 and 134.8 and 76.6 and 63.1 and 84.1 and 95.6 and 115.2
Serum triglycerides, Day 4 0 hr (2 pm) (serum triglycerides [2]; [8]): 76.6 and 76 (2×) and 57.3 and 74.7 and 80.5 and 71.5 and 73.4 and 61.1 and 67.6
Effect on non-fasting STG (serum triglycerides [2]; male SJL mice, 20 mg/kg orally): appeared to lower
Effect on fasting STG (serum triglycerides [2]; male SJL mice, 20 mg/kg orally, Day 4, 2 p.m.): but not fasting STG
Serum triglycerides, Day 1 (serum triglycerides [4]; individual male cynomolgus monkeys, by gastric intubation daily, Day 1 (baseline)): 48.8 mg/dL and 52.5 mg/dL and 58.5 mg/dL
Serum triglycerides, Day 8 (serum triglycerides [4]; individual male cynomolgus monkeys, by gastric intubation daily, Day 8): 24.3 mg/dL and 21.6 mg/dL and 19.2 mg/dL
Serum triglycerides, Day 15 (serum triglycerides [4]; individual male cynomolgus monkeys, by gastric intubation daily, Day 15): 18.2 mg/dL and 30.7 mg/dL and 29.6 mg/dL
Serum triglycerides, Day 22 (serum triglycerides [4]; individual male cynomolgus monkeys, by gastric intubation daily, Day 22): 30.4 mg/dL and 20.6 mg/dL and 36.5 mg/dL
Serum triglycerides, Day 25 (serum triglycerides [4]; individual male cynomolgus monkeys, by gastric intubation daily, Day 25): 20.3 mg/dL and 23.4 mg/dL and 28.3 mg/dL
Serum triglycerides, Day 1, group mean (serum triglycerides [4]; mean of 3 monkeys, by gastric intubation, Day 1 (baseline)): 53.3 mg/dL
Serum triglycerides, Day 8, group mean (serum triglycerides [4]; mean of 3 monkeys, by gastric intubation, Day 8): 21.7 mg/dL
Serum triglycerides, Day 15, group mean (serum triglycerides [4]; mean of 3 monkeys, by gastric intubation, Day 15): 26.2 mg/dL
Serum triglycerides, Day 22, group mean (serum triglycerides [4]; mean of 3 monkeys, by gastric intubation, Day 22): 29.2 mg/dL
Serum triglycerides, Day 25, group mean (serum triglycerides [4]; mean of 3 monkeys, by gastric intubation, Day 25): 24.0 mg/dL
Effect on serum triglycerides (serum triglycerides [4]; monkeys, daily dose 1.25 mg/kg orally, 1.25 mg/kg): highly significant decrease of serum triglycerides; also recorded: lowers serum triglycerides
Average decrease of serum triglycerides compared to day 1 (baseline) (serum triglycerides [4]; per treated monkey, 1.25 mg/kg orally daily for 25 days, control monkeys increased 48% and 89%, 1.25 mg/kg): 52% and 54% and 51%
Serum triglycerides, Day 4 post-WR-1339 1 hr (3 p.m.), group mean [5, 9]: 266.3
Serum triglycerides, Day 4 post-WR-1339 2 hr (4 p.m.), group mean [5, 10]: 485.6
Serum triglycerides, Day 4 post-WR-1339 1 hr (3 p.m.) [5, 11]: 216.8 and 307.2 and 294.9 and 311.7 and 238.7 and 303.9 and 260 and 252.3 and 210.9
Serum triglycerides, Day 4 post-WR-1339 2 hr (4 p.m.) [5, 12]: 328.5 and 548 and 562.9 and 577.1 and 493.8 and 508 and 550 and 542.9 and 259.1
Effect on HTG output after WR-1339 injection ([5]; male SJL mice): reduction of HTG output
Triglyceride level after treatment ([6]; Example 1, person, tablet 20 mg daily, 3 months, initial 440 mg/dL): 280 mg/dL
Triglyceride level after treatment ([6]; Example 2, person, tablet 50 mg twice daily, initial 950 mg/dL): 450 mg/dL
Side effects ([6]; human, in vivo): no side effects
Tolerability ([6]; human, in vivo): tolerates the medication well

SMILES: Cc1ccc(C2=CCC(C)(C)c3cc(O)c(C(=O)Nc4ccc(C(=O)O)c(F)c4)cc32)cc1 [AGN 197116]
Effect on STG (serum triglycerides [2]; SJL mice, 100 mg/kg orally, Day 3, 8 a.m. prior to dosing): no lowering of STG was observed
Effect on STG (serum triglycerides [2]; SJL mice, 16 hours after a single intraperitoneal 100 mg/kg dose in DMSO (Day 4, 8 a.m.)): clear lowering of STG
Effect on fasting STG (serum triglycerides [2]; SJL mice, intraperitoneal 100 mg/kg/injection, after fasting (Day 4, 2 p.m.)): this effect disappeared after fasting
Serum triglycerides, Day 4 post-WR-1339 0 hr (2 pm), group mean (serum triglycerides [2]; group mean, SJL mice, 100 mg/kg oral then I.P., after 6 hours fasting, before WR-1339): 50
Serum triglycerides, Day 4 0 hr (8 am), group mean (serum triglycerides [2]; group mean, SJL mice, 16 hours after a single 100 mg/kg I.P. dose): 79
Serum triglycerides, Day 3 0 Hour, group mean (serum triglycerides [2]; group mean, SJL mice, Day 1-3 100 mg/kg oral, Day 3 prior to dosing): 118
Serum triglycerides, Day 4 0 hr (2 pm), group mean (serum triglycerides [2]; [7]): 72.4
Serum triglycerides, Day 3 8 a.m., group mean (serum triglycerides [2]; group mean, male SJL mice): 123.0
Serum triglycerides, Day 4 0 hr (8 am) (serum triglycerides [2]; individual SJL mice, 16 hours after a single 100 mg/kg I.P. dose (after Day 1-3 100 mg/kg oral), 100 mg/kg): 58 and 79 and 51 and 114 and 50 and 125
Serum triglycerides, Day 4 post-WR-1339 0 hr (2 pm) (serum triglycerides [2]; individual SJL mice, Day 1-3 100 mg/kg oral, Day 3-4 100 mg/kg I.P., after 6 hours fasting, before WR-1339, 100 mg/kg): 42 mg/dL (2×) and 36 mg/dL and 73 mg/dL and 59 mg/dL and 50 mg/dL
Serum triglycerides, Day 3 0 Hour (serum triglycerides [2]; individual SJL mice, Day 1-3 100 mg/kg oral, Day 3 prior to dosing, 100 mg/kg): 81 and 104 and 103 and 139 and 107 and 171
Serum triglycerides, Day 3 8 a.m. (serum triglycerides [2]): 128.7 and 124 and 150.3 and 110.5 and 118.6 and 124.7 and 112.5 and 106.4 and 131.4
Serum triglycerides, Day 4 0 hr (2 pm) (serum triglycerides [2]; [8]): 63.1 and 91.7 and 43 and 72.1 and 90.8 and 76 and 68.2 and 73.4 (2×)
Effect on non-fasting STG (serum triglycerides [2]; male SJL mice, 20 mg/kg orally): not observed
Effect on HTG output ([5]; SJL mice, intraperitoneal injection 100 mg/kg/injection): reduced
Serum triglycerides, Day 4 post-WR-1339 1 hr (3 p.m.), group mean ([5]; SJL mice, 100 mg/kg oral then I.P., 1 hr after WR-1339): 222
Serum triglycerides, Day 4 post-WR-1339 2 hr (4 p.m.), group mean ([5]; SJL mice, 100 mg/kg oral then I.P., 2 hr after WR-1339): 345
Serum triglycerides, Day 4 post-WR-1339 1 hr (3 p.m.), group mean [5, 9]: 334.2
Serum triglycerides, Day 4 post-WR-1339 2 hr (4 p.m.), group mean [5, 10]: 646.8
Serum triglycerides, Day 4 post-WR-1339 1 hr (3 p.m.) ([5]; individual SJL mice, Day 1-3 100 mg/kg oral, Day 3-4 100 mg/kg I.P., 1 hr after WR-1339, 100 mg/kg): 220 and 195 and 248 and 345 and 126 and 197
Serum triglycerides, Day 4 post-WR-1339 2 hr (4 p.m.) ([5]; individual SJL mice, Day 1-3 100 mg/kg oral, Day 3-4 100 mg/kg I.P., 2 hr after WR-1339, 100 mg/kg): 285 and 272 and 396 and 531 and 200 and 387
Serum triglycerides, Day 4 post-WR-1339 1 hr (3 p.m.) [5, 11]: 360.1 and 380.1 and 464.1 and 241.9 and 331.7 and 329.8 and 262.6 and 311 and 326.5
Serum triglycerides, Day 4 post-WR-1339 2 hr (4 p.m.) [5, 12]: 726.9 and 723.7 and 770.2 and 590 and 575.2 and 700.4 and 462.8 and 659.1 and 612.6
Effect on HTG output after WR-1339 injection ([5]; male SJL mice): not observed
